The values below come from US7902186B2, “Substituted 5-phenyl-3,6-dihydro-2-oxo-6H-1,3,4-thiadiazines” (Merck Patent GmbH, priority 2005, dated 2011).

T1 sequence (P08581 974-1390 limits assumed): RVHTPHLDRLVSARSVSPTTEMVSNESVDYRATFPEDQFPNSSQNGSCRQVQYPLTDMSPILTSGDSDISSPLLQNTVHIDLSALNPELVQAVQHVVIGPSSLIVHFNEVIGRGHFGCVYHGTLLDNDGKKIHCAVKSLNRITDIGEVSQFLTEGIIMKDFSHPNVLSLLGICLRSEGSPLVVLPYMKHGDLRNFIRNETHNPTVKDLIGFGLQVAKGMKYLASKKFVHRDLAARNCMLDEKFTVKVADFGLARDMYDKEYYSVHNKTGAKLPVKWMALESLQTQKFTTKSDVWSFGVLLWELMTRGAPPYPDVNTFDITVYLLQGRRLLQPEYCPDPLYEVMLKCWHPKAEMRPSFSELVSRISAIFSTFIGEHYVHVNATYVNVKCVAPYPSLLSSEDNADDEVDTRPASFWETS

This experiment addresses T1, Met kinase (Homo sapiens, UniProt P08581).
T1 construct: 6His (N); purchased Upstate 14-526; host or cells: Sf21 insect cells (S. frugiperda), baculovirus
Briefly: Met kinase inhibition, flashplate method. It is filed as biochemical. Conditions: 33P-ATP, substrate pAGLT, 3 hrs at room temperature, read-out: IC50 (enzyme). An excerpt: Measurement of Met Kinase Activity
According to the manufacturer's data (Met, active, upstate, catalogue No. 14-526), Met kinase is expressed for the purposes of protein production in insect cells (Sf21; S. frugiperda) and subsequent affinity-chromatographic purification as “N-terminal 6His-tagged” recombinant human protein in a baculovirus expression vector.
Flashplate Method (Met Kinase)
The test plates used are 96-well Flashplate® microtitre plates from Perkin Elmer (Cat. No. SMP200). The components of the kinase reaction described below are pipetted into the assay plate. The Met kinase and the substrate poly Ala-Glu-Lys-Tyr, (pAGLT, 6:2:5:1), are incubated for 3 hrs at room temperature with radioactively labelled ^33P-ATP in the presence and absence of test substances in a total volume of 100 μl. The reaction is terminated using 150 μl of a 60 mM EDTA solution. After incubation for a further 30 min at room temperature, the supernatants are filtered off with suction, and the wells are washed three times with 200 μl of 0.9% NaCl solution each time. The measurement of the bound radioactivity is carried out by means of a scintillation measuring instrument (Topcount NXT, Perkin-Elmer).
The full value used is the inhibitor-free kinase reaction. This should be approximately in the range 6000-9000 cpm. The pharmacological zero value used is staurosporin in a final concentration of 0.1 mM. The inhibitory values (IC50) are determined using the RS1_MTS program.
Kinase Reaction Conditions Per Well:
• 30 μl of assay buffer • 10 μl of substance to be tested in assay buffer with 10% of DMSO • 10 μl of ATP (final concentration 1 μM cold, 0.35 μCi of ^33P-ATP) • 50 μl of Met kinase/substrate mixture in assay buffer; • (10 ng of enzyme/well, 50 ng of pAGLT/well)
Assay Buffer: • 50 mM HEPES • 3 mM magnesium chloride • 3 μM sodium orthovanadate • 3 mM manganese(II) chloride • 1 mM dithiothreitol (DTT) • pH=7.5 (to be set using sodium hydroxide)
Stop Solution: • 60 mM Titriplex III (EDTA)
^33P-ATP: Perkin-Elmer; • Met kinase: Upstate, Cat. No. 14-526, Stock 1 μg/10 μl; spec. activity 954 U/mg; • Poly-Ala-Glu-Lys-Tyr, 6:2:5:1: Sigma Cat. No. P1152
As usually defined, the IC50 is the point on the concentration scale where inhibition reaches its midpoint. Consider `CC(c1cccc(NC(=O)OCCCN(C)C)c1)N1N=C(c2ccc(F)c(F)c2)CSC1=O` (stereo not shown) [Compound A31], for which the IC50 is 10 to 1000 nM.

Regarding `COc1ccccc1C1=NN(Cc2cccc(NC(=O)OCCCN(C)C)c2)C(=O)SC1` [Compound A17], the IC50 lay within 10 to 1000 nM.

For `CNCC(=O)Nc1cccc(CN2N=C(c3cc(Cl)ccc3O)CSC2=O)c1` [Compound B1, N-{3-[5-(5-chloro-2-hydroxyphenyl)-2-oxo-6H-1,3,4-thiadiazin-3-ylmethyl]phenyl}-2-methylaminoacetamide], the half-inhibitory concentration (IC50) was 10 to 1000 nM.

As to `O=C(Nc1cccc(CN2N=C(c3ccccc3O)CSC2=O)c1)c1cccnc1` [Compound B6], the IC50 lay in the range of 10 to 1000 nM.

Turning to `CN(C)CCCOC(=O)Nc1cccc(CN2N=C(c3ccccc3F)CSC2=O)c1` [Compound A12], the 50% inhibitory concentration (IC50) lay within 10 to 1000 nM.

`CC(c1cccc(NC(=O)OCCCN2CCOCC2)c1)N1N=C(c2ccc(F)c(F)c2)CSC1=O` (stereo not shown) [Compound A29]: the IC50 is 10 to 1000 nM.

Turning to `O=C(Nc1cccc(CN2N=C(c3cc(Cl)ccc3O)CSC2=O)c1)c1cccnc1` [Compound B4], the concentration for half-maximal inhibition (IC50) was 10 to 1000 nM.

For `CCOC(=O)Nc1cccc(CN2N=C(c3ccc(Cl)cc3)CSC2=O)c1` [Compound A7], the IC50 was 10 to 1000 nM.

As for `CN(C)CCCOC(=O)Nc1cccc(CN2N=C(c3ccc(C#N)cc3)CSC2=O)c1` [Compound A20], the IC50 was in the range of 10 to 1000 nM.

As for `CC(c1cccc(NC(=O)OCCCN2CCN(C)CC2)c1)N1N=C(c2ccc(F)c(F)c2)CSC1=O` (stereo not shown) [Compound A30], the IC50 fell in the range of 10 to 1000 nM.

As for `CCNCCCOC(=O)Nc1cccc(CN2N=C(c3ccc(C#N)cc3)CSC2=O)c1` [Compound A33], the IC50 is 10 to 1000 nM.

Turning to `CN(C)CCCOC(=O)Nc1cccc(CN2N=C(c3ccc(Cl)cc3)CSC2=O)c1` [Compound A6], the IC50 was 10 to 1000 nM.

For the compound `CN(C)CCCOC(=O)Nc1cccc(CN2N=C(c3cccc(F)c3)CSC2=O)c1` [Compound A11], the IC50 lay within 10 to 1000 nM.
